Where “and” joins values, the source holds several entries; their conditions need not be identical. Equal values may be shown once. Read-outs that look alike come from different tables or passages of the source.
How the values were obtained:
[1] = biological target: T1, FES^S700C-SYK interaction (Homo sapiens, UniProt P07332, S700C); experiment: Co-immunoprecipitation in co-transfected U2OS cells; type: cell-based; conditions: WEL028 200 nM, 1 h
T1 construct: Full-length human cDNA encoding FES and PAK4 was obtained from Source Bioscience; expressed in transfected cells; host or cells: U2OS (human osteosarcoma)
Protocol: U2OS cells were co-transfected with FLAG-tagged FES and V5-tagged SYK and grown for 48 h as described above, followed by incubation with vehicle or WEL028 (200 nM) for 1 h. Cells were then washed with PBS and collected by scraping in IP-buffer (20 mM Tris-HCl pH 7.5, 150 mM NaCl, 1% Triton X-100 supplemented with […] Halt™ phosphatase and protease inhibitor cocktail (Thermo Fisher)). Cells were lysed by sonication on ice (three cycles of 10′′ on, 10′′ off at 25% maximum amplitude), centrifuged (14,000g, 10 min, 4 °C). The clear lysate was diluted to 1 mg/mL in IP-buffer and subjected to immunoprecipitation using Dynabeads™ Protein G Immunoprecipitation kit (Thermo Fisher) following manufacturer’s protocol. Briefly, anti-FLAG M2 antibody (1:100, Sigma Aldrich, F3156) was incubated with beads with gentle rotation (10 min, rt), after which lysate (500 µL of 1 mg/mL) was added and incubated (1 h, 4 °C). Beads were washed three times, transferred to clean tubes and eluted by suspension in 2× Laemmli buffer (50 µL, 10 min, 70 °C). Samples (10 µL per lane) were resolved by SDS-PAGE and immunoblotted using anti-V5 or anti-FLAG antibodies. Immunoprecipitations were performed in three independent replicates.

ADRBK1 (GRK2) = biological target: T2, ADRBK1 (GRK2) (Homo sapiens, UniProt P25098); experiment: SelectScreen kinase assay; conditions: for Inhibition at 1 µM (%): ADRBK1 (GRK2), ZLYTE, ATP Km app
T2 sequence (P25098 1-689): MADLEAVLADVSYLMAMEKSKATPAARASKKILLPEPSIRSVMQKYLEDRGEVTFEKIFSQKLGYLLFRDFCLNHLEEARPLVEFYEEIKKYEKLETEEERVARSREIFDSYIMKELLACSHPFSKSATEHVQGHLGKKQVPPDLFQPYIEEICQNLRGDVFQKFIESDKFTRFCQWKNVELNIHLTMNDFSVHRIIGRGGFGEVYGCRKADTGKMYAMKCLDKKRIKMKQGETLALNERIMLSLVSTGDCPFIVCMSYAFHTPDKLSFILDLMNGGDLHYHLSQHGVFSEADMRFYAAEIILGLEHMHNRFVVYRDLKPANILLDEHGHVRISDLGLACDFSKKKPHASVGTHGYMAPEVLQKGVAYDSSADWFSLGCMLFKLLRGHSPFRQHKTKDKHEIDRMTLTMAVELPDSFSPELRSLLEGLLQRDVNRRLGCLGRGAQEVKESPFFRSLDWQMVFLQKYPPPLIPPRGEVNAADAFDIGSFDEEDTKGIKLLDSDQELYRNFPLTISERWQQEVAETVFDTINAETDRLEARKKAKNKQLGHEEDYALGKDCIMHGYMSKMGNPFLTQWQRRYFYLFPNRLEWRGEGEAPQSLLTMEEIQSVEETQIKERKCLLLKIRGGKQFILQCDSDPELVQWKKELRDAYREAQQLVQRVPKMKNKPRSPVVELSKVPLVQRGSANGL
Protocol: (§1) Selectivity profiling assays were performed by the Invitrogen SelectScreen™ Services. […] The concentration of ATP was selected to be equal to the KM, unless indicated otherwise.

CAMK1D (CaMKI delta) = CAMK1D (CaMKI delta) (Homo sapiens, UniProt Q8IU85); experiment: SelectScreen kinase assay
Protocol: as §1

FGFR3 K650E = FGFR3 K650E (Homo sapiens, UniProt P22607, K650E); experiment: SelectScreen kinase assay; conditions: for Inhibition at 1 µM (%): FGFR3 K650E, ZLYTE, ATP Km app
Protocol: as §1

FLT3 [2] = biological target: FLT3 (Homo sapiens, UniProt P36888); experiment: SelectScreen kinase assay
Protocol: as §1

FLT3 [3] = experiment: SelectScreen kinase assay; conditions: IC50 on that kinase divided by IC50 on FES^S700C
Protocol: as §1

MAP2K3 (MEK3) = biological target: T3, MAP2K3 (MEK3) (Homo sapiens, UniProt P46734); experiment: SelectScreen kinase assay
T3 sequence (P46734 1-347): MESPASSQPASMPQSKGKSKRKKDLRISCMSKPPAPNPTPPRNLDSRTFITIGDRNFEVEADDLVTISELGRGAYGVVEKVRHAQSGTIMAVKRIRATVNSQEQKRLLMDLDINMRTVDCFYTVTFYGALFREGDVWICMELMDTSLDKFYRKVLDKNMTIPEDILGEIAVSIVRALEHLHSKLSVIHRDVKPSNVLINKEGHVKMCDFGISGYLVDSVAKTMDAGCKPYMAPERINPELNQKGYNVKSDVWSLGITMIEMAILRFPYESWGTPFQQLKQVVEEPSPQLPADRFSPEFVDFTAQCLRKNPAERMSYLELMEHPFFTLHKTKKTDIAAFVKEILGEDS
Protocol: as §1

MARK1 (MARK) = MARK1 (MARK) (Homo sapiens, UniProt Q9P0L2); experiment: SelectScreen kinase assay
Protocol: as §1

NEK6 = NEK6 (Homo sapiens, UniProt Q9HC98); experiment: SelectScreen kinase assay; conditions: for Inhibition at 1 µM (%): NEK6, ZLYTE, ATP Km app
Protocol: as §1

PI4K2B (PI4K2 beta) = PI4K2B (PI4K2 beta) (Homo sapiens, UniProt Q8TCG2); experiment: SelectScreen kinase assay; conditions: for Inhibition at 1 µM (%): PI4K2B (PI4K2 beta), Adapta, ATP 10
Protocol: as §1

PLK1 = PLK1 (Homo sapiens, UniProt P53350); experiment: SelectScreen kinase assay
Protocol: as §1

SPHK1 = SPHK1 (Homo sapiens, UniProt Q9NYA1); experiment: SelectScreen kinase assay
Protocol: as §1

WNK2 = WNK2 (Homo sapiens, UniProt Q9Y3S1); experiment: SelectScreen kinase assay
Protocol: as §1

FER^WT = FER^WT (Homo sapiens, UniProt P16591); experiment: In vitro TR-FRET kinase assay
[4] = 1 h, 1 μM WEL028, 1 h preincubation

Chain of PI4K2B (PI4K2 beta) (Q8TCG2 whole entry): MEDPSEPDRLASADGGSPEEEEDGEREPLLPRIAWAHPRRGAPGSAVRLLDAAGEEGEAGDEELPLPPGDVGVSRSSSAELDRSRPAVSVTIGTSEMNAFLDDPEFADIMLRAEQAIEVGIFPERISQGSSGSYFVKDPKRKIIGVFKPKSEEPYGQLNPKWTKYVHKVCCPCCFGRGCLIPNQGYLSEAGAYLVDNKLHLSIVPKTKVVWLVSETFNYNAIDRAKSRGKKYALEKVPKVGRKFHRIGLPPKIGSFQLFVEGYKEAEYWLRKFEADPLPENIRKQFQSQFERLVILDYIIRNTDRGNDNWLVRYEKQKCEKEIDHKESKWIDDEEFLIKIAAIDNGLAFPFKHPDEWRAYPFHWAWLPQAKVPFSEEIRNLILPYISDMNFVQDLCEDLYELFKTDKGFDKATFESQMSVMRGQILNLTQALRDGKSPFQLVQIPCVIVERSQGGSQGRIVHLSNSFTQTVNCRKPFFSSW
Chain of NEK6 (Q9HC98 whole entry): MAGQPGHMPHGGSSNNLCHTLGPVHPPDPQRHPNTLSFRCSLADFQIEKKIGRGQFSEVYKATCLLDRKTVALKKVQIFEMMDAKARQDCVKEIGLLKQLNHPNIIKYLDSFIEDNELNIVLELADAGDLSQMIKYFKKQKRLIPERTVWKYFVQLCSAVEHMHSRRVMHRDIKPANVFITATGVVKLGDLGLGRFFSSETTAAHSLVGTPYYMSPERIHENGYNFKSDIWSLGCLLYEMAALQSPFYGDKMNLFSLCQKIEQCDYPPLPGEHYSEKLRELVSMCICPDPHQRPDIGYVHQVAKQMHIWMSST
Chain of MARK1 (MARK) (Q9P0L2 whole entry): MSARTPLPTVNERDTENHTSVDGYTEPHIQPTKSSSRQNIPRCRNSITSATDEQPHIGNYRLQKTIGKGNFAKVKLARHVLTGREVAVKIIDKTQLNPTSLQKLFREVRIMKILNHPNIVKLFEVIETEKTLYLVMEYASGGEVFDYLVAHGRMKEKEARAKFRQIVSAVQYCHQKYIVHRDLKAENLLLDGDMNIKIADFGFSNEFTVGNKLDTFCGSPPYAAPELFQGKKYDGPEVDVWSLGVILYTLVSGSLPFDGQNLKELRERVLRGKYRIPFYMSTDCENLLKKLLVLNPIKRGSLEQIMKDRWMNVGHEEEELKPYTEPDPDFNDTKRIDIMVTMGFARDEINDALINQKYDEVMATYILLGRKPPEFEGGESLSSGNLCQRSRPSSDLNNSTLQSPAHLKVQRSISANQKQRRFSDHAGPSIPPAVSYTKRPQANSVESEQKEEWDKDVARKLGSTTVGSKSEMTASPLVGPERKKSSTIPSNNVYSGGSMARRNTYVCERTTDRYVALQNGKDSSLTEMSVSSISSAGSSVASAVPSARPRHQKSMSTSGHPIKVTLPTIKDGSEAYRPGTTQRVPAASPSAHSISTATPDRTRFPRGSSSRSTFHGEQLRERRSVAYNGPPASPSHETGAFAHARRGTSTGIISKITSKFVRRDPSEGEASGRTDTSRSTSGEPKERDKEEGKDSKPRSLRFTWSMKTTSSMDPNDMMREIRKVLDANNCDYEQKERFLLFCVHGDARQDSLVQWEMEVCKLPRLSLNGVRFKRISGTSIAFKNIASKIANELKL
Chain of SPHK1 (Q9NYA1 whole entry): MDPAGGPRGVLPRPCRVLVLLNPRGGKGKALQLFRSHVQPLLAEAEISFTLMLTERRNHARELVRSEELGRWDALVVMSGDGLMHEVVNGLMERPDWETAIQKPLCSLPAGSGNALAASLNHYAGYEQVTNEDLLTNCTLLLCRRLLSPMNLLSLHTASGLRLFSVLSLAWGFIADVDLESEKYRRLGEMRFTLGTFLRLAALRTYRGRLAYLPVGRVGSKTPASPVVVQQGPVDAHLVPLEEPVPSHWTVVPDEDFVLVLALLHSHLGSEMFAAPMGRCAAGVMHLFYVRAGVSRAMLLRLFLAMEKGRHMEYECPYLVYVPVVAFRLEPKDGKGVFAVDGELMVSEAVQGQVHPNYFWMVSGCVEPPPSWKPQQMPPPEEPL
Chain of FLT3 (Homo sapiens, UniProt P36888) (P36888 27-993, species assumed): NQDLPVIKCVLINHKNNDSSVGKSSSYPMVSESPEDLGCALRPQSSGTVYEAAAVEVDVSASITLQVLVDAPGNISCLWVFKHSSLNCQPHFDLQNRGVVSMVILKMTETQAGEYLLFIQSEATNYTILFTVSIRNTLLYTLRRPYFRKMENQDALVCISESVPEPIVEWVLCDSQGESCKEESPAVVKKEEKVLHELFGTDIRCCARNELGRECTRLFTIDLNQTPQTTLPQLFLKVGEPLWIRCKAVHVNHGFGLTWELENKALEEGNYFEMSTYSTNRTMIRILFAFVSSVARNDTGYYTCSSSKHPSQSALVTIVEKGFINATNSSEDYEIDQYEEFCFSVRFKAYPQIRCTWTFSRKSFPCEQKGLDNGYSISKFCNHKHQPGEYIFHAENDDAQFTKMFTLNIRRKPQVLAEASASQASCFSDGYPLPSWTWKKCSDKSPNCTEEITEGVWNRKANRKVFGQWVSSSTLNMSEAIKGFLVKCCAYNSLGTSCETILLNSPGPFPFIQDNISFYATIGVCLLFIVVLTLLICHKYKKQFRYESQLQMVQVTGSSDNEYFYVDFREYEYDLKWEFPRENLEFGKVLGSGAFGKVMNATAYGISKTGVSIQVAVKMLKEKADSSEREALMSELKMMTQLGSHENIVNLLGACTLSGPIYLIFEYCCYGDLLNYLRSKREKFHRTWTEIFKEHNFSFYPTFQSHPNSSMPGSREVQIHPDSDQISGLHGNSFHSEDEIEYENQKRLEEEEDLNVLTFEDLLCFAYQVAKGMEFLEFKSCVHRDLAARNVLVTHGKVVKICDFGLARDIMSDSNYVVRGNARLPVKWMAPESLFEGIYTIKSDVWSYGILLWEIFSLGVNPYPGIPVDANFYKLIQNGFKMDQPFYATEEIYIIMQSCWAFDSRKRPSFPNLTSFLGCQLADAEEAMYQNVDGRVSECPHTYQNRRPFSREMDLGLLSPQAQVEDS
Chain of FGFR3 K650E (P22607 23-806 K650E): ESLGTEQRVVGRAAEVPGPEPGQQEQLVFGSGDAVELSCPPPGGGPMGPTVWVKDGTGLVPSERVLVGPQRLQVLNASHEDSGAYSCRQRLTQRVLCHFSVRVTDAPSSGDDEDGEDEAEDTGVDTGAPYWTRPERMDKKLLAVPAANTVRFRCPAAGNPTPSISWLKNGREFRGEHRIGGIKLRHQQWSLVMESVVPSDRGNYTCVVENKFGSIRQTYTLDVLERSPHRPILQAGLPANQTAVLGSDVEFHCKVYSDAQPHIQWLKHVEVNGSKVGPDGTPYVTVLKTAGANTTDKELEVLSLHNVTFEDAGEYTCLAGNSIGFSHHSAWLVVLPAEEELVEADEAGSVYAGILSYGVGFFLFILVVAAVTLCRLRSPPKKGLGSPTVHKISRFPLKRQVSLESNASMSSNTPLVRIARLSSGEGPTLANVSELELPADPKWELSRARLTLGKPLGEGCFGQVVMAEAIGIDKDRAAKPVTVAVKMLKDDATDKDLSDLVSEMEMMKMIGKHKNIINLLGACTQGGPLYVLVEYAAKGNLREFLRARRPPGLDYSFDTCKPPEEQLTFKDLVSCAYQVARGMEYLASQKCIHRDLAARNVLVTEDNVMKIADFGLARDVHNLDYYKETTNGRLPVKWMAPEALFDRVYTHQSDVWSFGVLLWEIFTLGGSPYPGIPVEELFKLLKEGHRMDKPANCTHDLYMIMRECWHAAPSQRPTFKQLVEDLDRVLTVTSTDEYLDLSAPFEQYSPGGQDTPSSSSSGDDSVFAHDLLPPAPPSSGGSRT
Chain of PLK1 (P53350 whole entry): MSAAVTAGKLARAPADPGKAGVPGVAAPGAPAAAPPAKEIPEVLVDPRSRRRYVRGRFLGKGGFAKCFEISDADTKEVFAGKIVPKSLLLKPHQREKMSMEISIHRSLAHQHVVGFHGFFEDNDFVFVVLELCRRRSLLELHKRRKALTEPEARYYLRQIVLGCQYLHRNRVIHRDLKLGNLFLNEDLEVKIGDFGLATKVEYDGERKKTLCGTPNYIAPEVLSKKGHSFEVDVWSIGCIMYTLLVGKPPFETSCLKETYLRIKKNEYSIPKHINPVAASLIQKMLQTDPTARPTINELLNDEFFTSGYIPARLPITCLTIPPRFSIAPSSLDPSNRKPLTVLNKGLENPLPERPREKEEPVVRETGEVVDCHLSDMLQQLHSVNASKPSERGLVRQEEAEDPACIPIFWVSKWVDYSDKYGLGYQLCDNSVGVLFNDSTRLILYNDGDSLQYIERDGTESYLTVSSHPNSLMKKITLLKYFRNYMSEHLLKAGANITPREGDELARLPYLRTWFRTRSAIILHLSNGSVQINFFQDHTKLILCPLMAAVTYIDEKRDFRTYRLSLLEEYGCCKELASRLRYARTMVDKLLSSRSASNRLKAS
Chain of CAMK1D (CaMKI delta) (Q8IU85 whole entry): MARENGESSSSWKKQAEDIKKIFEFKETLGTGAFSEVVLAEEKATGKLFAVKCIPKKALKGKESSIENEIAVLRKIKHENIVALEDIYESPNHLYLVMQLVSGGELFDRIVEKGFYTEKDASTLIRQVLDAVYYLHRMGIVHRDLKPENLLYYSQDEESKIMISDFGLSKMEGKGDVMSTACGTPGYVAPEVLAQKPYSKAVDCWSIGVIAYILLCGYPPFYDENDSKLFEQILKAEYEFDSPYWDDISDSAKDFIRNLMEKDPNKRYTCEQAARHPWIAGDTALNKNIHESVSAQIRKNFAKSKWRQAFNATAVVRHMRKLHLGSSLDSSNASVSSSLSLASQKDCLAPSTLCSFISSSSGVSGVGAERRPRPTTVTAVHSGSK

## C#CCOc1ccc(Nc2ncc(Cl)c(Nc3ccccc3NC(=O)C=C)n2)c(OC)c1 [Compound 6]
[1]
  Co-precipitation of SYK with FES: inhibited the co-precipitation of SYK with FES
ADRBK1 (GRK2); [4]
  inhibition at 1 µM: 4%
ADRBK1 (GRK2)
  Inhibition at 1 µM (%): 2%
ADRBK1 (GRK2); listed as WEL028, 1 µM
  Inhibition at 1 µM (%): 6%
CAMK1D (CaMKI delta); [4]
  inhibition at 1 µM: 6%
CAMK1D (CaMKI delta); read-out: Inhibition at 1 µM (%), CAMK1D (CaMKI delta), 1 µM, ZLYTE, ATP Km app
  inhibition at 1 µM: 5%
FGFR3 K650E; [4]
  inhibition at 1 µM: 8%
FGFR3 K650E
  Inhibition at 1 µM (%): 12%
FGFR3 K650E; listed as WEL028, 1 µM
  Inhibition at 1 µM (%): 4%
FLT3 [2]
  IC50: 3160 nM
FLT3 [2]; [4]
  inhibition at 1 µM: 61%
FLT3 [2]; FLT3, 1 µM, ZLYTE, ATP Km app, listed as WEL028, 1 µM
  Inhibition at 1 µM (%): 58%
FLT3 [2]; read-out: Inhibition at 1 µM (%), FLT3, 1 µM, ZLYTE, ATP Km app
  inhibition at 1 µM: 64%
FLT3 [3]
  Apparent fold selectivity: 718 fold
MAP2K3 (MEK3); [4]
  inhibition at 1 µM: 46%
MAP2K3 (MEK3); MAP2K3 (MEK3), 1 µM, LanthaScreen Binding, listed as WEL028, 1 µM
  Inhibition at 1 µM (%): 53%
MAP2K3 (MEK3); read-out: Inhibition at 1 µM (%), MAP2K3 (MEK3), 1 µM, LanthaScreen Binding
  inhibition at 1 µM: 38%
MARK1 (MARK); [4]
  inhibition at 1 µM: 1%
MARK1 (MARK); MARK1 (MARK), 1 µM, ZLYTE, ATP Km app, listed as WEL028, 1 µM
  Inhibition at 1 µM (%): -1% and 4%
NEK6; [4]
  inhibition at 1 µM: 9%
NEK6
  Inhibition at 1 µM (%): 13%
NEK6; listed as WEL028, 1 µM
  Inhibition at 1 µM (%): 5%
PI4K2B (PI4K2 beta); [4]
  inhibition at 1 µM: 2%
PI4K2B (PI4K2 beta)
  Inhibition at 1 µM (%): 3%
PI4K2B (PI4K2 beta); listed as WEL028, 1 µM
  Inhibition at 1 µM (%): 0%
PLK1; [4]
  inhibition at 1 µM: 12%
PLK1; PLK1, 1 µM, ZLYTE, ATP Km app, listed as WEL028, 1 µM
  Inhibition at 1 µM (%): 8%
PLK1; read-out: Inhibition at 1 µM (%), PLK1, 1 µM, ZLYTE, ATP Km app
  inhibition at 1 µM: 15%
SPHK1; 1 µM, Adapta, ATP Km app, listed as WEL028, 1 µM
  Inhibition at 1 µM (%): 4% and 1%
SPHK1; [4]
  inhibition at 1 µM: 2%
WNK2; 1 µM, LanthaScreen Binding, listed as WEL028, 1 µM
  Inhibition at 1 µM (%): 4%
WNK2; [4]
  inhibition at 1 µM: 5%
WNK2; read-out: Inhibition at 1 µM (%), 1 µM, LanthaScreen Binding
  inhibition at 1 µM: 5%
FER^WT
  IC50: 501 nM

Source: paper PMC7316778 (Nature Communications, 2020)
